Assay results from ChEMBL document CHEMBL3885861, “Open TG-GATES”.

Species: Rattus norvegicus
Assay: Open TG-GATES - Regimen: Single
Assay type: toxicity, organism-based, Sprague-Dawley
Parameters: regimen Single, gender Male, age 6 weeks
Conditions: in vivo, po, 0 mg/kg, route gavage, dose level Control; for APTT / Bas / Eos / Fbg / Hb / Ht / Lym / MCH / MCHC / MCV / Mono / Neu / PT / Plat / RBC / Ret / WBC: tissue Blood; for KIDNEY_L / KIDNEY_R / KIDNEY_TOTAL: tissue Kidney; for LIVER: tissue Liver; for A/G / ALP / ALT / AST / BUN / CRE / Ca / Cl / DBIL / GLC / IP / K / LDH / Na / PL / RALB / TBIL / TC / TG / TP / gamma-GTP: tissue Plasma

CN(C)CCC=C1c2ccccc2CCc2ccccc21 [AMITRIPTYLINE]
TERMINAL_BW (3 h): 194 g
APTT (3 h): 16.6 s
Bas (3 h): 0%
Eos (3 h): 0.8%
Fbg (3 h): 235.6 mg/dL
Hb (3 h): 12.8 g/dL
Ht (3 h): 39.8%
Lym (3 h): 77.6%
MCH (3 h): 20.9 pg
MCHC (3 h): 32.3%
MCV (3 h): 64.6 fL
Mono (3 h): 3.4%
Neu (3 h): 17.2%
PT (3 h): 16.2 s
Plat (3 h): 103.9 x10_4/uL
RBC (3 h): 616.6 x10_4/ul
Ret (3 h): 9.3%
WBC (3 h): 90.6 x10_2/uL
KIDNEY_L (3 h): 0.9 g
KIDNEY_R (3 h): 0.9 g
KIDNEY_TOTAL (3 h): 1.7 g
LIVER (3 h): 8.2 g
A/G (3 h): 0.8
ALP (3 h): 1452 IU/L
ALT (3 h): 48.2 IU/L
AST (3 h): 80.8 IU/L
BUN (3 h): 8.8 mg/dL
CRE (3 h): 0.2 mg/dL
Ca (3 h): 10.7 mg/dL
Cl (3 h): 106 meq/L
DBIL (3 h): 0.01 mg/dL
GLC (3 h): 183.6 mg/dL
IP (3 h): 9.2 mg/dL
K (3 h): 4.1 meq/L
LDH (3 h): 66.2 IU/L
Na (3 h): 143 meq/L
PL (3 h): 124.4 mg/dL
RALB (3 h): 2.4 g/dL
TBIL (3 h): 0.062 mg/dL
TC (3 h): 67.6 mg/dL
TG (3 h): 44.4 mg/dL
TP (3 h): 5.3 g/dL
gamma-GTP (3 h): 1 IU/L
TERMINAL_BW (6 h): 193.8 g
APTT (6 h): 17 s
Bas (6 h): 0%
Eos (6 h): 0.8%
Fbg (6 h): 256.2 mg/dL
Hb (6 h): 12.7 g/dL
Ht (6 h): 38.9%
Lym (6 h): 72.6%
MCH (6 h): 20.6 pg
MCHC (6 h): 32.6%
MCV (6 h): 63.3 fL
Mono (6 h): 2.4%
Neu (6 h): 23.2%
PT (6 h): 15.8 s
Plat (6 h): 119.8 x10_4/uL
RBC (6 h): 615.8 x10_4/ul
Ret (6 h): 8.9%
WBC (6 h): 66 x10_2/uL
KIDNEY_L (6 h): 0.9 g
KIDNEY_R (6 h): 0.8 g
KIDNEY_TOTAL (6 h): 1.7 g
LIVER (6 h): 8.2 g
A/G (6 h): 0.9
ALP (6 h): 1334.2 IU/L
ALT (6 h): 44.6 IU/L
AST (6 h): 74.4 IU/L
BUN (6 h): 8.6 mg/dL
CRE (6 h): 0.1 mg/dL
Ca (6 h): 10.7 mg/dL
Cl (6 h): 105.8 meq/L
DBIL (6 h): 0.008 mg/dL
GLC (6 h): 173.6 mg/dL
IP (6 h): 9.8 mg/dL
K (6 h): 4.2 meq/L
LDH (6 h): 62 IU/L
Na (6 h): 142.6 meq/L
PL (6 h): 142.6 mg/dL
RALB (6 h): 2.5 g/dL
TBIL (6 h): 0.06 mg/dL
TC (6 h): 78.4 mg/dL
TG (6 h): 67 mg/dL
TP (6 h): 5.4 g/dL
gamma-GTP (6 h): 1 IU/L
TERMINAL_BW (9 h): 191.9 g
APTT (9 h): 16 s
Bas (9 h): 0%
Eos (9 h): 1%
Fbg (9 h): 295.6 mg/dL
Hb (9 h): 12.8 g/dL
Ht (9 h): 39.1%
Lym (9 h): 77.6%
MCH (9 h): 20.9 pg
MCHC (9 h): 32.8%
MCV (9 h): 63.9 fL
Mono (9 h): 2.4%
Neu (9 h): 18.6%
PT (9 h): 15.2 s
Plat (9 h): 119.1 x10_4/uL
RBC (9 h): 611.8 x10_4/ul
Ret (9 h): 8.5%
WBC (9 h): 71.6 x10_2/uL
KIDNEY_L (9 h): 0.9 g
KIDNEY_R (9 h): 0.9 g
KIDNEY_TOTAL (9 h): 1.7 g
LIVER (9 h): 7.8 g
A/G (9 h): 0.8
ALP (9 h): 1549.8 IU/L
ALT (9 h): 40.8 IU/L
AST (9 h): 71.4 IU/L
BUN (9 h): 8.8 mg/dL
CRE (9 h): 0.2 mg/dL
Ca (9 h): 10.7 mg/dL
Cl (9 h): 106.6 meq/L
DBIL (9 h): 0.01 mg/dL
GLC (9 h): 174.8 mg/dL
IP (9 h): 10 mg/dL
K (9 h): 4 meq/L
LDH (9 h): 60.4 IU/L
Na (9 h): 142.6 meq/L
PL (9 h): 140.4 mg/dL
RALB (9 h): 2.5 g/dL
TBIL (9 h): 0.06 mg/dL
TC (9 h): 79.4 mg/dL
TG (9 h): 44 mg/dL
TP (9 h): 5.4 g/dL
gamma-GTP (9 h): 1 IU/L
TERMINAL_BW (24 h): 208.1 g
APTT (24 h): 16.3 s
Bas (24 h): 0.4%
Eos (24 h): 1%
Fbg (24 h): 266 mg/dL
Hb (24 h): 12.5 g/dL
Ht (24 h): 38.5%
Lym (24 h): 77.8%
MCH (24 h): 21.2 pg
MCHC (24 h): 32.4%
MCV (24 h): 65.5 fL
Mono (24 h): 3.2%
Neu (24 h): 17%
PT (24 h): 16.3 s
Plat (24 h): 110 x10_4/uL
RBC (24 h): 589.4 x10_4/ul
Ret (24 h): 9.5%
WBC (24 h): 101.9 x10_2/uL
KIDNEY_L (24 h): 0.9 g
KIDNEY_R (24 h): 0.9 g
KIDNEY_TOTAL (24 h): 1.8 g
LIVER (24 h): 9.6 g
A/G (24 h): 0.8
ALP (24 h): 1573.8 IU/L
ALT (24 h): 48.2 IU/L
AST (24 h): 77.4 IU/L
BUN (24 h): 15.4 mg/dL
CRE (24 h): 0.2 mg/dL
Ca (24 h): 11.1 mg/dL
Cl (24 h): 105 meq/L
DBIL (24 h): 0.016 mg/dL
GLC (24 h): 186.4 mg/dL
IP (24 h): 8.2 mg/dL
K (24 h): 4 meq/L
LDH (24 h): 90.2 IU/L
Na (24 h): 143.2 meq/L
PL (24 h): 153.8 mg/dL
RALB (24 h): 2.6 g/dL
TBIL (24 h): 0.054 mg/dL
TC (24 h): 79.4 mg/dL
TG (24 h): 97.4 mg/dL
TP (24 h): 5.6 g/dL
gamma-GTP (24 h): 0.6 IU/L
